Reference: patent US9730940B2, “Purine inhibitors of human phosphatidylinositol 3-kinase delta” (priority 2012, dated 2017)

Target: PI3K-alpha (Homo sapiens (Human), UniProt P42336)
Experiment: HTRF PI3K biochemical assay, alpha isoform
Conditions: ratio PI3K-alpha IC50 value/PI3K-delta IC50 value

PI3K-alpha, sequence (P42336 whole entry, looked up, canonical isoform): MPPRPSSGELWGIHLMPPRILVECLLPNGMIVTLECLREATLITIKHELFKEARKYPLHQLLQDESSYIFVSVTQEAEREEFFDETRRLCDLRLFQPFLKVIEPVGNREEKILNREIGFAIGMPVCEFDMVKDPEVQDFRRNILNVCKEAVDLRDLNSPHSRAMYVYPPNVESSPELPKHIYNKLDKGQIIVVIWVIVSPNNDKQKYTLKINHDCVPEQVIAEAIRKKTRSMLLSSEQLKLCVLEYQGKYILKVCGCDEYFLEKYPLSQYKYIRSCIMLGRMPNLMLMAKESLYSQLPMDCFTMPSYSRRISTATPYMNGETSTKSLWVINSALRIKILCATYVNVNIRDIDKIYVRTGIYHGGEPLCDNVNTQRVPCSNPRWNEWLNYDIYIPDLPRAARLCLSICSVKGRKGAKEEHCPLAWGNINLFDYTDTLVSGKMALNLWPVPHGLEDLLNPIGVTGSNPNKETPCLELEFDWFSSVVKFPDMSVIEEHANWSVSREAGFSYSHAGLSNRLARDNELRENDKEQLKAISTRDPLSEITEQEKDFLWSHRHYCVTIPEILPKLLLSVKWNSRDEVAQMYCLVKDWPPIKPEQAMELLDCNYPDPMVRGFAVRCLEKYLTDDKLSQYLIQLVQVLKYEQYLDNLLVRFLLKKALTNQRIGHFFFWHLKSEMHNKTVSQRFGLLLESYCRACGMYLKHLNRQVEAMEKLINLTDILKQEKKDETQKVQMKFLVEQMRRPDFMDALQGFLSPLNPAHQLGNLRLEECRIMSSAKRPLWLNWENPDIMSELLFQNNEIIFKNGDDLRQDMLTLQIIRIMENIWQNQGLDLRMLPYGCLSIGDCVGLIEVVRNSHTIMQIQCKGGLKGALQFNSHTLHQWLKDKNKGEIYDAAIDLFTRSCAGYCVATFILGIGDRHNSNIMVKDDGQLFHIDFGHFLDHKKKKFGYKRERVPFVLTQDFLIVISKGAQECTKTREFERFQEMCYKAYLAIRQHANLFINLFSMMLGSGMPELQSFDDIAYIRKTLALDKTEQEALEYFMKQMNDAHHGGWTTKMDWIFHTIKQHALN
PI3K-alpha, sequence (P27986 whole entry partner, looked up, canonical isoform): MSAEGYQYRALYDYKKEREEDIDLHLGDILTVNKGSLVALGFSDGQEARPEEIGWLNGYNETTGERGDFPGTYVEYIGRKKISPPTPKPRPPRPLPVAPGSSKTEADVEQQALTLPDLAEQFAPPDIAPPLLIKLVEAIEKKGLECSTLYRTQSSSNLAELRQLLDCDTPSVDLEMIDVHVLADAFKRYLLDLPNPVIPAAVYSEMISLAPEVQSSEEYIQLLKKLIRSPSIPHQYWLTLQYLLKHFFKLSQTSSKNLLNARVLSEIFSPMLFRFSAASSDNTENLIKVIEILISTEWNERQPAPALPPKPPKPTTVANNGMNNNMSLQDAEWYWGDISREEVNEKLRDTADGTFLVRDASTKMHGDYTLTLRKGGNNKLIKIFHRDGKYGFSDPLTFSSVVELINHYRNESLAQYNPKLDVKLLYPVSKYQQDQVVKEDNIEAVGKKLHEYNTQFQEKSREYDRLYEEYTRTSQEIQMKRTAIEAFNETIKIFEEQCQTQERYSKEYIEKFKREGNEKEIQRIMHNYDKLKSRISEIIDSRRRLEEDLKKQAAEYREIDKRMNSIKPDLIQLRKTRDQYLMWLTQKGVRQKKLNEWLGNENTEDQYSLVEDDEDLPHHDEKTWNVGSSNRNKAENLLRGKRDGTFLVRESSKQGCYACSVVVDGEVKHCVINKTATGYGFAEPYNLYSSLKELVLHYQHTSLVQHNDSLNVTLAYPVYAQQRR

CCn1ncc(-c2nc3c(O[C@H]4CCN(C(=O)c5coc(C)n5)C4)ncnc3n2C)c1C [Compound 2-27, 8-(1-ethyl-5-methyl-1H-pyrazol-4-yl)-9-methyl-6-({(3S)-1-[(2-methyl-1,3-oxazol-4-yl)carbonyl]pyrrolidin-3-yl}oxy)-9H-purine]
Relative Selectivity versus PI3Kalpha: >10

CCn1ncc(-c2nc3c(O[C@H]4CCN(C(=O)c5nc(C)oc5C)C4)ncnc3n2C)c1C [Compound 2-28, 6-({(3S)-1-[(2,5-dimethyl-1,3-oxazol-4-yl)carbonyl]pyrrolidin-3-yl}oxy)-8-(1-ethyl-5-methyl-1H-pyrazol-4-yl)-9-methyl-9H-purine]
Relative Selectivity versus PI3Kalpha: >10

CCn1ncc(-c2nc3c(O[C@H]4CCN(C(=O)c5cnon5)C4)ncnc3n2C)c1C [Compound 2-29, 8-(1-ethyl-5-methyl-1H-pyrazol-4-yl)-9-methyl-6-{[(3S)-1-(1,2,5-oxadiazol-3-ylcarbonyl)pyrrolidin-3-yl]oxy}-9H-purine]
Relative Selectivity versus PI3Kalpha: 1

CCn1ncc(-c2nc3c(O[C@H]4CCN(C(=O)c5cnn(C(C)C)c5)C4)ncnc3n2C)c1C [Compound 2-31, 8-(1-ethyl-5-methyl-1H-pyrazol-4-yl)-9-methyl-6-{[(3S)-1-{[1-(1-methylethyl)-1H-pyrazol-4-yl]carbonyl}pyrrolidin-3-yl]oxy}-9H-purine]
Relative Selectivity versus PI3Kalpha: 5

CCn1ncc(-c2nc3c(O[C@H]4CCN(C(=O)c5ccno5)C4)ncnc3n2C)c1C [Compound 2-32, 8-(1-ethyl-5-methyl-1H-pyrazol-4-yl)-6-{[(3S)-1-(isoxazol-5-ylcarbonyl)pyrrolidin-3-yl]oxy}-9-methyl-9H-purine]
Relative Selectivity versus PI3Kalpha: >10

CCn1ncc(-c2nc3c(O[C@H]4CCN(C(=O)c5ccn[nH]5)C4)ncnc3n2C)c1C [Compound 2-33, 8-(1-ethyl-5-methyl-1H-pyrazol-4-yl)-9-methyl-6-{[(3S)-1-(1H-pyrazol-5-ylcarbonyl)pyrrolidin-3-yl]oxy}-9H-purine]
Relative Selectivity versus PI3Kalpha: >10

CCn1ncc(-c2nc3c(O[C@H]4CCN(C(=O)c5nonc5C)C4)ncnc3n2C)c1C [Compound 2-35, 8-(1-ethyl-5-methyl-1H-pyrazol-4-yl)-9-methyl-6-({(3S)-1-[(4-methyl-1,2,5-oxadiazol-3-yl)carbonyl]pyrrolidin-3-yl}oxy)-9H-purine]
Relative Selectivity versus PI3Kalpha: >10

CCn1ncc(-c2nc3c(O[C@H]4CCN(C(=O)c5ccnn5C)C4)ncnc3n2C)c1C [Compound 2-36, 8-(1-ethyl-5-methyl-1H-pyrazol-4-yl)-9-methyl-6-({(3S)-1-[(1-methyl-1H-pyrazol-5-yl)carbonyl]pyrrolidin-3-yl}oxy)-9H-purine]
Relative Selectivity versus PI3Kalpha: >10

CCn1ncc(-c2nc3c(O[C@H]4CCN(C(=O)c5ccn(C)n5)C4)ncnc3n2C)c1C [Compound 2-37, 8-(1-ethyl-5-methyl-1H-pyrazol-4-yl)-9-methyl-6-({(3S)-1-[(1-methyl-1H-pyrazol-3-yl)carbonyl]pyrrolidin-3-yl}oxy)-9H-purine]
Relative Selectivity versus PI3Kalpha: >10

CCn1ncc(-c2nc3c(O[C@H]4CCN(C(=O)c5cc(C)nn5C)C4)ncnc3n2C)c1C [Compound 2-38, 6-({(3S)-1-[(1,3-dimethyl-1H-pyrazol-5-yl)carbonyl]pyrrolidin-3-yl}oxy)-8-(1-ethyl-5-methyl-1H-pyrazol-4-yl)-9-methyl-9H-purine]
Relative Selectivity versus PI3Kalpha: 7

CCn1ncc(-c2nc3c(O[C@H]4CCN(C(=O)c5nccn5C)C4)ncnc3n2C)c1C [Compound 2-39, 8-(1-ethyl-5-methyl-1H-pyrazol-4-yl)-9-methyl-6-({(3S)-1-[(1-methyl-1H-imidazol-2-yl)carbonyl]pyrrolidin-3-yl}oxy)-9H-purine]
Relative Selectivity versus PI3Kalpha: >10

CCn1ncc(-c2nc3c(O[C@H]4CCN(C(=O)c5c[nH]nn5)C4)ncnc3n2C)c1C [Compound 2-40, 8-(1-ethyl-5-methyl-1H-pyrazol-4-yl)-9-methyl-6-{[(3S)-1-(1H-1,2,3-triazol-4-ylcarbonyl)pyrrolidin-3-yl]oxy}-9H-purine]
Relative Selectivity versus PI3Kalpha: 2

CCn1ncc(-c2nc3c(O[C@H]4CCN(C(=O)c5cnn6cccnc56)C4)ncnc3n2C)c1C [Compound 2-41, 8-(1-ethyl-5-methyl-1H-pyrazol-4-yl)-9-methyl-6-{[(3S)-1-(pyrazolo[1,5-a]pyrimidin-3-ylcarbonyl)pyrrolidin-3-yl]oxy}-9H-purine]
Relative Selectivity versus PI3Kalpha: 6

CCn1ncc(-c2nc3c(O[C@H]4CCN(C(=O)c5nnc6n5CCCC6)C4)ncnc3n2C)c1C [Compound 2-42, 8-(1-ethyl-5-methyl-1H-pyrazol-4-yl)-9-methyl-6-{[(3S)-1-(5,6,7,8-tetrahydro[1,2,4]triazolo[4,3-a]pyridin-3-ylcarbonyl)pyrrolidin-3-yl]oxy}-9H-purine]
Relative Selectivity versus PI3Kalpha: 3

CCn1ncc(-c2nc3c(O[C@H]4CCN(C(=O)c5c[nH]nc5C(F)(F)F)C4)ncnc3n2C)c1C [Compound 2-43, 8-(1-ethyl-5-methyl-1H-pyrazol-4-yl)-9-methyl-6-{[(3S)-1-{[3-(trifluoromethyl)-1H-pyrazol-4-yl]carbonyl}pyrrolidin-3-yl]oxy}-9H-purine]
Relative Selectivity versus PI3Kalpha: 10

CCn1ncc(-c2nc3c(O[C@H]4CCN(C(=O)c5cn(C)nn5)C4)ncnc3n2C)c1C [Compound 2-44, 8-(1-ethyl-5-methyl-1H-pyrazol-4-yl)-9-methyl-6-({(3S)-1-[(1-methyl-1H-1,2,3-triazol-4-yl)carbonyl]pyrrolidin-3-yl}oxy)-9H-purine]
Relative Selectivity versus PI3Kalpha: 9

CCn1ncc(-c2nc3c(O[C@H]4CCN(C(=O)c5nnsc5C)C4)ncnc3n2C)c1C [Compound 2-46, 8-(1-ethyl-5-methyl-1H-pyrazol-4-yl)-9-methyl-6-({(3S)-1-[(5-methyl-1,2,3-thiadiazol-4-yl)carbonyl]pyrrolidin-3-yl}oxy)-9H-purine]
Relative Selectivity versus PI3Kalpha: >10

CCn1ncc(-c2nc3c(O[C@H]4CCN(C(=O)c5nc6cc(Cl)ccn6n5)C4)ncnc3n2C)c1C [Compound 2-47, 6-({(3S)-1-[(7-chloro[1,2,4]triazolo[1,5-a]pyridin-2-yl)carbonyl]pyrrolidin-3-yl}oxy)-8-(1-ethyl-5-methyl-1H-pyrazol-4-yl)-9-methyl-9H-purine]
Relative Selectivity versus PI3Kalpha: 1

CCn1ncc(-c2nc3c(O[C@H]4CCN(C(=O)c5[nH]ncc5C)C4)ncnc3n2C)c1C [Compound 2-48, 8-(1-ethyl-5-methyl-1H-pyrazol-4-yl)-9-methyl-6-({(3S)-1-[(4-methyl-1H-pyrazol-5-yl)carbonyl]pyrrolidin-3-yl}oxy)-9H-purine]
Relative Selectivity versus PI3Kalpha: >10

CCn1ncc(-c2nc3c(O[C@H]4CCN(C(=O)c5noc(C(C)(C)O)n5)C4)ncnc3n2C)c1C [Compound 2-50, 2-(3-{[(3S)-3-{[8-(1-ethyl-5-methyl-1H-pyrazol-4-yl)-9-methyl-9H-purin-6-yl]oxy}pyrrolidin-1-yl]carbonyl}-1,2,4-oxadiazol-5-yl)propan-2-ol]
Relative Selectivity versus PI3Kalpha: 8

CCn1ncc(-c2nc3c(O[C@H]4CCN(C(=O)c5conc5C)C4)ncnc3n2C)c1C [Compound 2-51, 8-(1-ethyl-5-methyl-1H-pyrazol-4-yl)-9-methyl-6-({(3S)-1-[(3-methylisoxazol-4-yl)carbonyl]pyrrolidin-3-yl}oxy)-9H-purine]
Relative Selectivity versus PI3Kalpha: >10

CCn1ncc(-c2nc3c(O[C@H]4CCN(C(=O)c5ccnn5C(C)C)C4)ncnc3n2C)c1C [Compound 2-52, 8-(1-ethyl-5-methyl-1H-pyrazol-4-yl)-9-methyl-6-{[(3S)-1-{[1-(1-methylethyl)-1H-pyrazol-5-yl]carbonyl}pyrrolidin-3-yl]oxy}-9H-purine]
Relative Selectivity versus PI3Kalpha: >10

CCn1ncc(-c2nc3c(O[C@H]4CCN(C(=O)c5ccnc(C)c5)C4)ncnc3n2C)c1C [Compound 2-56, 8-(1-ethyl-5-methyl-1H-pyrazol-4-yl)-9-methyl-6-({(3S)-1-[(2-methylpyridin-4-yl)carbonyl]pyrrolidin-3-yl}oxy)-9H-purine]
Relative Selectivity versus PI3Kalpha: >10

CCn1ncc(-c2nc3c(O[C@H]4CCN(C(=O)c5ncoc5C)C4)ncnc3n2C)c1C [Compound 2-57, 8-(1-ethyl-5-methyl-1H-pyrazol-4-yl)-9-methyl-6-({(3S)-1-[(5-methyl-1,3-oxazol-4-yl)carbonyl]pyrrolidin-3-yl}oxy)-9H-purine]
Relative Selectivity versus PI3Kalpha: >10

CCn1ncc(-c2nc3c(O[C@H]4CCN(C(=O)c5oc(C)nc5C)C4)ncnc3n2C)c1C [Compound 2-58, 6-({(3S)-1-[(2,4-dimethyl-1,3-oxazol-5-yl)carbonyl]pyrrolidin-3-yl}oxy)-8-(1-ethyl-5-methyl-1H-pyrazol-4-yl)-9-methyl-9H-purine]
Relative Selectivity versus PI3Kalpha: >10

CCn1ncc(-c2nc3c(O[C@H]4CCN(C(=O)c5cc(C)n(C)n5)C4)ncnc3n2C)c1C [Compound 2-59, 6-({(3S)-1-[(1,5-dimethyl-1H-pyrazol-3-yl)carbonyl]pyrrolidin-3-yl}oxy)-8-(1-ethyl-5-methyl-1H-pyrazol-4-yl)-9-methyl-9H-purine]
Relative Selectivity versus PI3Kalpha: 2

CCn1ncc(-c2nc3c(O[C@H]4CCN(C(=O)c5cc(C(F)(F)F)nn5C)C4)ncnc3n2C)c1C [Compound 2-61, 8-(1-ethyl-5-methyl-1H-pyrazol-4-yl)-9-methyl-6-{[(3S)-1-{[1-methyl-3-(trifluoromethyl)-1H-pyrazol-5-yl]carbonyl}pyrrolidin-3-yl]oxy}-9H-purine]
Relative Selectivity versus PI3Kalpha: >10

CCn1ncc(-c2nc3c(O[C@H]4CCN(C(=O)C5CC(=O)N(C)C5)C4)ncnc3n2C)c1C (stereo partly drawn) [Compound 2-62, 4-{[(3S)-3-{[8-(1-ethyl-5-methyl-1H-pyrazol-4-yl)-9-methyl-9H-purin-6-yl]oxy}pyrrolidin-1-yl]carbonyl}-1-methylpyrrolidin-2-one]
Relative Selectivity versus PI3Kalpha: >10

CCn1ncc(C(=O)N2CC[C@H](Oc3ncnc4c3nc(-c3cnn(CC)c3C)n4C)C2)c1C [Compound 2-63, 8-(1-ethyl-5-methyl-1H-pyrazol-4-yl)-6-({(3S)-1-[(1-ethyl-5-mcthyl-1H-pyrazol-4-yl)carbonyl]pyrrolidin-3-yl}oxy)-9-methyl-9H-purine]
Relative Selectivity versus PI3Kalpha: 10
